Data as given in patent US20210137857A1, “A COMPOSITION FOR TREATMENT OR PREVENTION OF A NEURODEGENERATIVE DISEASE” (NEILOS S.R.L., priority 2017, published 2021).

Columns and labels:
[1] = human, in vivo; cited from earlier work
[2] = Solubility tests on the test compounds; type: physicochemical

Compound | patients treated with increase in serum transaminases [1] | patients with abdominal cramps, anorexia, nausea, vomiting and diarrhoea [1] | Solubility test RESULT [2]
Nc1c2c(nc3ccccc13)CCCC2 [Tacrine] | more than 50% | more than a third of patients | 
Amyloid β peptide 1-42 [Peptide β1-42] |  |  | POSITIVE
